According to article PMC11324527, “Cryo-EM architecture of a near-native stretch-sensitive membrane microdomain” (Nature, 2024):

What was measured:
[1] = biological target: T1, Pil1 (recombinant, reconstituted tubules) (Saccharomyces cerevisiae, UniProt P53252); assay: cryo-EM helical reconstruction of reconstituted tubules; assay type: binding
T1 construct: PIL1 in pCoofy6, 6xHis-Sumo3 tag cleaved by SenP2, E. coli BL21(DE3)pLysS; homodimer in helical lattice on lipid tubules; model stops before residue 275
T1 sequence (P53252 1-339): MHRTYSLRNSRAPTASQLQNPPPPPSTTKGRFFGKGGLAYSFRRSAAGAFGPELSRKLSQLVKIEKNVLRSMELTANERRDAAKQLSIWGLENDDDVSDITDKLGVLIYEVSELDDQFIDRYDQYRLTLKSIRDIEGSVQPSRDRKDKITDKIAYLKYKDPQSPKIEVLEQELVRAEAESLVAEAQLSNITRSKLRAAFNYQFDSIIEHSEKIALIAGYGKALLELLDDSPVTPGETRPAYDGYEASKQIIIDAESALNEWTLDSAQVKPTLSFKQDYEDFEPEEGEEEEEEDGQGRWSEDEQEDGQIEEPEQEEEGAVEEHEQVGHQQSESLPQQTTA

Pil1–mCherry = Pil1–mCherry (Saccharomyces cerevisiae, UniProt P53252); conditions: labelled compound; 1% PI(4,5)P2; PI(4,5)P2-dependent; pH 7.4, 150 mM KoAc, 2 mM MgAc
[2] = biological target: the molecule itself; assay: cryo-EM structure; native-source eisosome tubules isolated from S. cerevisiae with bound plasma membrane bilayer; helical reconstruction of nine tubule types, symmetry expansion and density subtraction; dimers in a helical lattice
[3] = biological target: the molecule itself; assay: cryo-EM structure; 15-20 uM recombinant Pil1 with about 2 mg/ml LUVs of known lipid mixtures, 30 °C for one hour, 20 mM HEPES pH 7.4, 150 mM KoAc, 2 mM MgAc; helical reconstruction; dimers in a helical lattice

With `CCCCCCCC/C=C\CCCCCCCC(=O)OC[C@H](COP(=O)(O)OC[C@H](N)C(=O)O)OC(=O)CCCCCCC/C=C\CCCCCCCC` [DOPS] the “cryo-EM helical reconstruction of reconstituted tubules” value ([1]; +PI(4,5)P2/+sterol (15% cholesterol) mixture, site R43, K66, R70) was “This density accommodates a phosphatidylserine (PS) lipid (DOPS is present in our lipid mixtures)”.

For `CC1=CC(C)=[N+]2C1=C(CC[C@@H](C)[C@H]1CC[C@H]3[C@@H]4CC=C5C[C@@H](O)CC[C@]5(C)[C@H]4CC[C@]13C)c1c(C)cc(C)n1[B-]2(F)F` [TF-cholesterol], the mobile fraction (Pil1–mCherry) was “immobilized fraction of cholesterol interacts strongly with Pil1 and/or other lipids bound to the protein”.

For `CC(C)CCC[C@@H](C)[C@H]1CC[C@H]2[C@@H]3CC=C4C[C@@H](O)CC[C@]4(C)[C@H]3CC[C@]12C` [cholesterol], the “cryo-EM helical reconstruction of reconstituted tubules” value ([1]; +PI(4,5)P2/+sterol (15% cholesterol), void pattern below amphipathic helix, sterol not modelled) was “this pattern results from the stable association of sterol molecules with the AH”.

B1: Pil1 (native-source eisosome) (natural protein, S. cerevisiae (endogenous in yeast), UniProt P53252 1-339, looked up)
chain: MHRTYSLRNSRAPTASQLQNPPPPPSTTKGRFFGKGGLAYSFRRSAAGAFGPELSRKLSQLVKIEKNVLRSMELTANERRDAAKQLSIWGLENDDDVSDITDKLGVLIYEVSELDDQFIDRYDQYRLTLKSIRDIEGSVQPSRDRKDKITDKIAYLKYKDPQSPKIEVLEQELVRAEAESLVAEAQLSNITRSKLRAAFNYQFDSIIEHSEKIALIAGYGKALLELLDDSPVTPGETRPAYDGYEASKQIIIDAESALNEWTLDSAQVKPTLSFKQDYEDFEPEEGEEEEEEDGQGRWSEDEQEDGQIEEPEQEEEGAVEEHEQVGHQQSESLPQQTTA
notes: Pil1, BAR-domain eisosome protein of S. cerevisiae; model built up to residue 274 (C-terminal region from residue 275 removed, no density); Stands in the tubules as dimers in a helical lattice; also called Pil1/Lsp1; PIL1_YEAST; source: endogenous, untagged, S. cerevisiae
In the case of B1, the “stoichiometry N” value [2] is reported as 2.

B2: Recombinant Pil1 (natural protein, S. cerevisiae, UniProt P53252 1-339, looked up)
chain: MHRTYSLRNSRAPTASQLQNPPPPPSTTKGRFFGKGGLAYSFRRSAAGAFGPELSRKLSQLVKIEKNVLRSMELTANERRDAAKQLSIWGLENDDDVSDITDKLGVLIYEVSELDDQFIDRYDQYRLTLKSIRDIEGSVQPSRDRKDKITDKIAYLKYKDPQSPKIEVLEQELVRAEAESLVAEAQLSNITRSKLRAAFNYQFDSIIEHSEKIALIAGYGKALLELLDDSPVTPGETRPAYDGYEASKQIIIDAESALNEWTLDSAQVKPTLSFKQDYEDFEPEEGEEEEEEDGQGRWSEDEQEDGQIEEPEQEEEGAVEEHEQVGHQQSESLPQQTTA
notes: Pil1 of S. cerevisiae, PIL1 cloned into pCoofy6 with primers from the start codon to the stop codon; Vector pCoofy6 (Addgene plasmid 43990) gives 6xHis-Sumo3; the Sumo3 tag was cleaved off with SenP2; It forms dimers in a helical lattice on liposomes; also called purified Pil1; reconstituted Pil1; source: E. coli BL21(DE3)pLysS, purified (HisTrap, HiTrap Q, SenP2 cleavage, Superdex 200); not …
For B2, the “stoichiometry N” value [3] was 2.
